{"source": "paper PMC9616412", "about": "“Nebulized fusion inhibitory peptide protects cynomolgus macaques from measles virus infection” (Nature Communications, 2022)", "key": {"[1]": {"experiment": "Immunofluorescence detection of HRC4 in lungs after nebulization", "type": "in vivo, cynomolgus macaques", "settings": "lungs sampled 15 min, 16 h and 24 h after nebulization; anti-HRC4 immunofluorescence, all three lung regions", "method": "To evaluate immediate HRC4 biodistribution into lungs, one animal from the MeV-infection experiment (C1) was nebulized with 3 ml (4 mg/ml) immediately after euthanasia under mechanical ventilation (Dräger Primus anesthesia machine). For mid-term biodistribution, animals were nebulized 24 h (C2) or 16 h (C3) before euthanasia.\nTo assess the bioavailability of the HRC4 peptide on lungs, sections were stained and imaged by confocal microscopy as described previously. Briefly, after being blocked and permeabilized in 0.1% TritonX100, 5% BSA solution, slices were sequentially incubated with a rabbit anti-HRC4 (Genscript) overnight at 4 °C and with a secondary donkey anti-rabbit alexa-555 (Thermo Fisher) diluted 1/500 and DAPI (1 µg/ml) for 1 h at room temperature. Slides were imaged using a Zeiss LSM800 confocal microscope and processed by ImageJ1.52p."}, "[2]": {"experiment": "ELISA of anti-HRC4 antibodies (IgG, IgA, IgM) in serum", "type": "in vivo, cynomolgus macaques", "settings": "for anti-HRC4 antibodies (IgG, IgA and IgM), ELISA, D28 minus day 0: serum 1:20, rep1-rep3", "method": "Briefly, HRC4 was coated in carbonate buffer pH 9.2 overnight (1 μg /well). […] Rabbit anti-HRC4 Ab followed with anti-rabbit Ab coupled to HRP was used as a positive control. Evaluation of total IgE in the serum was performed using the monkey IgE kit (Ozyme) following the manufacturer’s recommendation."}, "[3]": {"experiment": "Lung histopathology (HE, HES; eosinophil infiltration)", "type": "in vivo, cynomolgus macaques", "settings": "for Lung eosinophil infiltration: HES staining", "method": "Lung tissue samples were collected at necropsy and fixed by immersion in 10% neutral buffered formalin (Sigma) for a minimum of 14 days. The tissue samples were trimmed, processed and embedded in paraffin. 4 to 5 µm-thick sections were cut. For histopathology evaluation, slides were routinely stained with hematoxylin-eosin (HE) or with hematoxylin-eosin-saffron (HES). For the study of the pulmonary infiltration by eosinophils, the histopathologic evaluation was performed by a board-certified veterinary pathologist.\nFor hematoxylin-eosin staining, formalin-fixed tissues were processed and embedded in paraffin and tissue sections were then deparaffinized, rehydrated, rinsed, and placed in PBS before harrys hematoxylin staining (Diapath, diluted 1/3), washed with PBS and stained with eosin 1% (Sigma-Aldrich). Slide were washed with water dehydrated and mounted with DPX mounting medium (Sigma-Aldrich). For the study of eosinophils infiltration, slides were stained in addition with saffron and analysed by a board-certified veterinary pathologist."}, "MeV IC323-eGFP [4]": {"tested_on": "MeV IC323-eGFP", "experiment": "Class-unswitched and switched memory B cells by flow cytometry", "settings": "HRC4-treated animals P1 and P3", "protocol": "Whole blood was collected on EDTA, then transferred into BD vacutainer CPT tubes (after removal of anticoagulant solution from CPT tubes) and spun at 2500 g for 20 min. The PBMCs were collected and one-tenth were used to isolate RNA. […] Cells were acquired on a MACSQuant®10 flow cytometer (Miltenyi) and analyzed by FlowJo10.8 (Becton Dickinson) and Kaluza 2.1 (Beckman Coulter)."}, "MeV IC323": {"tested_on": "MeV IC323", "experiment": "Lethal intranasal MeV infection of CD150xIFNα/βR KO mice, survival", "settings": "p < 0.0001, Mantel-Cox test", "protocol": "CD150xIFNα/βR KO mice[35],[36], generated by crossing hSLAM transgenic mice into an IFN Receptor α/β deficient background, were bred at the institute’s animal facility (PBES, ENS-Lyon, France) as heterozygotes for hSLAM transgenes. Three to 4 weeks old mice (males and females) were infected by intranasal route (i.n.) with 10 µl of MeV IC323 in both nares (10^4 PFU/mouse) under isoflurane anesthesia. CD150xIFNα/βR KO mice were given i.n. either 0.1 or 1 mg/kg of HRC4 peptide 24 h or 6 h before the infection. Control mice received the same number of administrations of the diluent. All animals were observed and weighed daily for four weeks and those showing clinical signs (neurological symptoms, ataxia, lethargy) were euthanized."}, "MeV IC323-eGFP [5]": {"tested_on": "MeV IC323-eGFP", "experiment": "Serial passaging of MeV in presence of peptide and sequencing for escape variants", "settings": "1 µM peptide, Vero-hSLAM cells, 8 passages, sequencing of viral RNA"}}, "note": "Where “and” joins values, the source holds several entries; their conditions need not be identical. Identical values can stand only once."}
{"smiles": "CC[C@H](C)[C@H](NC(=O)[C@H](C)NC(=O)[C@H](CC(N)=O)NC(=O)CNC(=O)[C@H](CC(C)C)NC(=O)[C@H](CC(N)=O)NC(=O)[C@@H](NC(=O)CNC(=O)[C@@H](NC(=O)[C@H](CC(=O)O)NC(=O)[C@H](CC(C)C)NC(=O)[C@H](CCCNC(=N)N)NC(=O)[C@H](CCC(=O)O)NC(=O)[C@H](CC(C)C)NC(=O)[C@H](CO)NC(=O)[C@@H](NC(=O)[C@@H]1CCCN1C(=O)[C@@H]1CCCN1)[C@@H](C)CC)C(C)C)[C@@H](C)O)C(=O)N[C@@H](C)C(=O)N[C@@H](CCCCN)C(=O)N[C@@H](CC(C)C)C(=O)N[C@@H](CCC(=O)O)C(=O)N[C@@H](CC(=O)O)C(=O)N[C@@H](C)C(=O)N[C@@H](CCCCN)C(=O)N[C@@H](CCC(=O)O)C(=O)N[C@@H](CC(C)C)C(=O)N[C@@H](CC(C)C)C(=O)N[C@@H](CCC(=O)O)C(=O)N[C@@H](CO)C(=O)N[C@@H](CO)C(=O)N[C@@H](CC(=O)O)C(=O)N[C@@H](CCC(N)=O)C(=O)N[C@H](C(=O)N[C@@H](CC(C)C)C(=O)N[C@@H](CCCNC(=N)N)C(=O)NCC(=O)N[C@@H](CO)C(=O)NCC(=O)N[C@@H](CO)C(=O)NCC(=O)N[C@@H](CSC1CC(=O)N(CCCC(=O)NCCOCCOCCOCCOCCC(=O)NCCN(CCNC(=O)CCOCCOCCOCCOCCNC(=O)CCCN2C(=O)CC(SC[C@H](NC(=O)CNC(=O)[C@H](CO)NC(=O)CNC(=O)[C@H](CO)NC(=O)CNC(=O)[C@H](CCCNC(=N)N)NC(=O)[C@H](CC(C)C)NC(=O)[C@@H](NC(=O)[C@H](CCC(N)=O)NC(=O)[C@H](CC(=O)O)NC(=O)[C@H](CO)NC(=O)[C@H](CO)NC(=O)[C@H](CCC(=O)O)NC(=O)[C@H](CC(C)C)NC(=O)[C@H](CC(C)C)NC(=O)[C@H](CCC(=O)O)NC(=O)[C@H](CCCCN)NC(=O)[C@H](C)NC(=O)[C@H](CC(=O)O)NC(=O)[C@H](CCC(=O)O)NC(=O)[C@H](CC(C)C)NC(=O)[C@H](CCCCN)NC(=O)[C@H](C)NC(=O)[C@@H](NC(=O)[C@H](C)NC(=O)[C@H](CC(N)=O)NC(=O)CNC(=O)[C@H](CC(C)C)NC(=O)[C@H](CC(N)=O)NC(=O)[C@@H](NC(=O)CNC(=O)[C@@H](NC(=O)[C@H](CC(=O)O)NC(=O)[C@H](CC(C)C)NC(=O)[C@H](CCCNC(=N)N)NC(=O)[C@H](CCC(=O)O)NC(=O)[C@H](CC(C)C)NC(=O)[C@H](CO)NC(=O)[C@@H](NC(=O)[C@@H]3CCCN3C(=O)[C@@H]3CCCN3)[C@@H](C)CC)C(C)C)[C@@H](C)O)[C@@H](C)CC)[C@@H](C)CC)C(=O)O)C2=O)CCO[C@H]2CC[C@@]3(C)C(=CC[C@H]4[C@@H]5CC[C@H]([C@H](C)CCCC(C)C)[C@@]5(C)CC[C@@H]43)C2)C1=O)C(=O)O)[C@@H](C)CC", "note": "(some centres unmarked) [HRC4]", "values": [{"measurement": "Deposition of HRC4 in lungs", "setting": "[1]", "value": "presence of HRC4 within the alveoli surface area"}, {"measurement": "HRC4 specific antibodies in serum", "setting": "[2]; 28 days after nebulization", "value": "not found"}, {"measurement": "anti-HRC4 antibodies (IgG, IgA and IgM), ELISA, D28 minus day 0", "setting": "[2]; animal P2", "value": "0.2158 and 0.159 and 0.1449"}, {"measurement": "anti-HRC4 antibodies (IgG, IgA and IgM), ELISA, D28 minus day 0", "setting": "[2]; animal P3", "value": "0.0684 and 0.0721 and 0.0837"}, {"measurement": "Lung eosinophil infiltration", "setting": "[3]; HRC4-treated animals P1 and P3", "value": "no eosinophil infiltration was visible"}, {"measurement": "Lung eosinophil infiltration", "setting": "[3]; animals that developed MeV infection (incl. HRC4-treated P2)", "value": "minimal although noticeable eosinophil infiltration"}, {"measurement": "Histological analysis of lungs", "setting": "[3]; lungs collected from nebulized animals", "value": "did not reveal any abnormalities"}, {"measurement": "Memory B cell populations", "setting": "MeV IC323-eGFP [4]", "value": "remained stable without any noticeable increase"}, {"measurement": "Survival rate", "setting": "MeV IC323; HRC4 1 mg/kg intranasal six hours before infection with 10^4 PFU", "value": "significantly higher survival rate"}, {"measurement": "Survival rate", "setting": "MeV IC323; HRC4 1 mg/kg intranasal twenty-four hours before infection with 10^4 PFU", "value": "significantly higher survival rate"}, {"measurement": "Mutations in MeV F after serial passage in presence of peptide", "setting": "MeV IC323-eGFP [5]", "value": "no mutations were identified"}]}
